Values quoted from earlier work in patent US20200368373A1, “OPTICAL IMAGING AGENTS TARGETING INFLAMMATION” (SORBONNE UNIVERSITE, priority 2018, published 2020).

Molecular target: T1, selectin E (Mus musculus, UniProt Q00690)
T1 sequence (Q00690 22-612): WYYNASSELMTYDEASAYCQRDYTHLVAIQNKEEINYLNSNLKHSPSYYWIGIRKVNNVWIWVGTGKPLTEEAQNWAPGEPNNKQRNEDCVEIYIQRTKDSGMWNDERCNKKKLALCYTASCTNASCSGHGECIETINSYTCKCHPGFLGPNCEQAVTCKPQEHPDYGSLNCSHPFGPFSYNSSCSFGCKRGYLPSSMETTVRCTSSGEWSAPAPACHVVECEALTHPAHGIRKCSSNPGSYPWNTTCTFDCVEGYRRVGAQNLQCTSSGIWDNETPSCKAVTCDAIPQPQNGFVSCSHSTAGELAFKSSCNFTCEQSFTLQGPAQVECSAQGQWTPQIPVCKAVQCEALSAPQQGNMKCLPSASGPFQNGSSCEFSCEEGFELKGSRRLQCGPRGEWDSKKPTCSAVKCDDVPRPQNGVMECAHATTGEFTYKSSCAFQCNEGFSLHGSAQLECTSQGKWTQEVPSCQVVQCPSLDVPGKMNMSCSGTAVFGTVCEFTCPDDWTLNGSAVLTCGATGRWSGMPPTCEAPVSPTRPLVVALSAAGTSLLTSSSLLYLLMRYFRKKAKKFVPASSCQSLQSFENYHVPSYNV
Conditions: known in the art

For Sialyl Lewis X, which “affinity for selectin E” value is on record?
Its value is “high affinity”.
